The nature of data set [1]: Bioavailability in oral administration in rats. The class given is in vivo, Wistar-strain male rats. Details: AUC at 4 h: concentration or dose not given beside the values. The following applies: rat, plasma, rats, oral. Here is the method:
Each of the test compounds was suspended in a 0.5% sodium carboxymethylcellulose to prepare a suspension having a concentration of 5 mg/ml of the test compound.
Wistar-strain male rats (weighing 160 g ±20 g, three per group) were used. The suspension was orally administered to rats fasted 16 hours. 30, 60, 120, and 240 minutes after the administration of the test compound, blood was taken out from the rats. The blood was centrifuged at 3,000 rpm for 20 minutes to obtain a plasma sample. In the same manner as described in Experiment 2, the concentration (μg/ml) of test compound in plasma and also AUC (μg.hr/ml) were measured.

The nature of data set [2]: Bioavailability in oral administration in mice. The class given is in vivo, ddY-strain male mice. The following applies: mouse, serum, mice, oral 50 mg/kg. Here is the method:
Each of the test compounds was suspended in a 0.5% sodium carboxymethylcellulose to prepare a suspension having a concentration of 5 mg/ml of the compound.
ddY-strain male mice (5 week old, weighing 22 to 25 g, three per group) were used. The suspension was orally administered to mice fasted for 16 hours. The dose of the test compound was adjusted to 50 mg/kg of body weight of animal. 30, 60, 120, and 240 minutes after the administration of the test compound, blood was taken out from each mouse, and the blood sample thus obtained was centrifuged at 3,000 rpm for 20 minutes to obtain a serum sample.

Data set [3] is described as follows: in vivo. The following applies: mouse, in vivo, po. How it is done:
(§1) The acute toxicities in oral administration and intravenous injection of the test compounds were tested as follows:
In oral administration: To ddY-strain male mice (weighing 20-25 g, five per group) was administered orally a suspension of each test compound in a 0.5% sodium carboxymethylcellulose. […] J. Biometric Soc., 8, 249 (1959)].

Data set [4] can be described thus: in vivo. The following applies: mouse, in vivo, iv. The class given is in vivo. Here is the method:
as §1
In intravenous administration: Each of the test compounds was dissolved in 1N aqueous sodium hydroxide solution and thereto was added a phosphoric acid-saline buffer (pH 7.2) to prepare a test solution. The test solution was intravenously injected to ddy-strain male mice (weighing 20-25 g, five per group). One week after the administration of the test solution, the LD50 was determined in accordance with Weil method.

Data set [5] relates to Pseudomonas aeruginosa IFO 3445. Description: MIC. The class given is cell-based. The following applies: IFO3445, gram negative, read-out: MIC. Here is the method:
(§2) In accordance with the method as disclosed in Chemotherapy, Vol. 29, pages 76-79 (1981), MIC (μg/ml) of each test compound was measured.

In data set [6] the test system is Serratia marcescens IAM 1184. Description: MIC. The class given is cell-based. As to conditions: IAM1184, gram negative. How it is done:
as §2

Data set [7] relates to Staphylococcus aureus FDA 209P JC-1. The experiment in a line: MIC. The following applies: FDA209P, gram positive. The class given is cell-based. Here is the method:
as §2

In data set [8] the test system is Escherichia coli NIHJ JC-2. The experiment in a line: MIC. The class given is cell-based. As to conditions: NIHJJC2, gram negative. How it is done: as §2
Data set [9] has as its system Salmonella paratyphi 1015. Description: MIC. The class given is cell-based. As to conditions: Salmonella enterica. How it is done: as §2
The test system of a further data set is Proteus Vulgaris HX-19. The experiment in a line: MIC. The class given is cell-based. The following applies: gram negative. How it is done: as §2
Data set [10] has as its system Klebsiella pneumoniae PCI-602. The experiment in a line: MIC. The class given is cell-based. The following applies: PCI602, gram negative. How it is done:
as §2

Data set [11] deals with Bacillus subtilis ATCC 6633. Description: MIC. The class given is cell-based. As to conditions: ATCC6633, gram positive. How it is done: as §2
The subject of data set [12] is Staphylococcus epidermidis. Description: MIC. The class given is cell-based. The following applies: gram positive. Here is the method: as §2

In brackets after ≈: the same amount, converted by molar mass.

From patent US4530930A, “Antimicrobial 1-ethyl-6,8-difluoro-1,4-dihydro-7-(1-imidazolyl)-4-oxoquinoline-3-carbo xylic acid derivatives” (Kanebo, Ltd., priority 1982, dated 1985) come the findings set out here.

By AUC is commonly meant concentration integrated over time. The LD50 is the dose expected to kill half of the subjects tested. As usually defined, the MIC is the least concentration at which growth counts as inhibited. Regarding `CCn1cc(C(=O)O)c(=O)c2cc(F)c(N3CCN(C)CC3)c(F)c21` [D, 1-ethyl-6,8-difluoro-1,4-dihydro-7-[1-(4-methylpiperazinyl)]-4-oxoquinoline-3-carboxylic acid], the concentration at 0.5 h in data set [1] (after 30 min., read-out: Concentration in plasma) came to 22600 ± 4500 ng/mL; in data set [2] (after 30 min., read-out: Concentration in serum) it was 14400 ± 800 ng/mL. Also, the concentration at 1 h in data set [1] (after 60 min., read-out: Concentration in plasma) turned out to be 24000 ± 2300 ng/mL; in data set [2] (after 60 min., read-out: Concentration in serum), 11500 ± 900 ng/mL. For the same compound, the concentration at 2 h in [1] (after 120 min., read-out: Concentration in plasma) amounted to 14600 ± 1100 ng/mL; in [2] (after 120 min., read-out: Concentration in serum), 6700 ± 600 ng/mL. Besides, the concentration at 4 h in data set [1] (after 240 min., read-out: Concentration in plasma) was 9300 ± 100 ng/mL; in data set [2] (after 240 min., read-out: Concentration in serum) it was 3400 ± 400 ng/mL. For the same compound, the area under the curve (AUC) at 4 h in [1] (1-4 hrs., read-out: AUC) was found to be 60400 ng·h/mL; in data set [2] (1-4 hrs., read-out: AUC), 29300 ng·h/mL. Moreover, the values for the LD50 at 168 h in the data set “in vivo [3]” and in the data set “in vivo [4]” were 536 mg/kg and 196 mg/kg, respectively. In addition, the minimum inhibitory concentration (MIC) in data set [5] worked out at 1.56 µg/mL (≈ 4.44 µM); in data set [6] it was 0.78 µg/mL (≈ 2.22 µM); in [7], 0.78 µg/mL (≈ 2.22 µM); in data set [8] it was 0.2 µg/mL (≈ 0.569 µM); in data set [9] it was 0.1 µg/mL (≈ 0.285 µM); against Proteus Vulgaris HX-19, 0.05 µg/mL (≈ 0.142 µM). Further, the figures for the minimum inhibitory concentration (MIC) in data set [10], in data set [11] and in [12] were 0.1 µg/mL (≈ 0.285 µM), 0.2 µg/mL (≈ 0.569 µM) and 1.56 µg/mL (≈ 4.44 µM), respectively.
